Data published in patent publication US4540700A, “Treatment of diabetic complications with certain spiro-imidazolidine-diones” (Alcon Laboratories, Inc., priority 1984, dated 1985).
pIC50: −log10 of the molar value.

Legend:
Human Aldose Reductase = Human Aldose Reductase (Homo sapiens, UniProt P15121); assay: Human Aldose Reductase Inhibition; assay type: biochemical; settings: for activity against human aldose reductase as compared to rat aldose reductase: human vs rat; for more active against human aldose reductase than the Sarges resolved compound: relative to Sarges resolved
Rat Aldose Reductase = Rat Aldose Reductase (Rattus norvegicus, UniProt P07943); assay: Rat Aldose Reductase Inhibition; assay type: biochemical
Excerpt: Biophysical Chemistry, 8 (1978) 81-85; P. F. Kador, L. O. Merola and J. H
Kinoshita Documenta Ophthamologica, 18 (1979) 117.

cataracts in rats = assay: prevention or retardation of cataracts in rats fed 30% galactose diet (compound in chow); assay type: in vivo, rat; settings: for inhibition of cataract development: 4 and 8 Mg/Kg/day; for condition of rat eyes: 4 and 8 Mg/Kg/day in 30% galactose chow, 32 days
Excerpt: (§1) The compounds were formulated in ground Purina Rodent Laboratory Chow, Number 5001, containing 30% galactose.
Eighty-four rats were divided into the following seven groups (six treated groups having different compound intake levels and an untreated galactose control) having different compound intake levels as shown in Table IV.
(§2) The galactose control group (twelve rats, twenty-four eyes) were fed ground Purina Rodent Laboratory Chow, No. 5001 containing 30% by weight galactose. The six test compound groups (twelve rats, twenty-four eyes per group) were fed the same 30% galactose chow except that the chow was formulated to deliver […] of the indicated test compound (see Table IV).
It is known that young male rats fed a 30% galactose diet (As previously described) will develop lenticular changes within several days which predicatively progress in time irreversibly to cataracts. Aldose reductase inhibitor compounds which are in vivo active will delay or prevent galactose induced cataractogenesis. In this in vivo experiment, the test aldose reductase inhibitor compounds were formulated in the 30% galactose feed to evaluate their in vivo anticataract activity.

[1] = test system: galactitol levels in the lenses; assay: galactitol levels in lenses of galactose-fed rats at Day 32; assay type: in vivo, rat; design: average galactitol levels in lenses: unit not given here; settings: for average galactitol levels in lenses: Day 32
Excerpt: as §1, §2

[2] = test system: nerve conduction velocities of the sciatic nerve; assay: Nerve conduction study in diabetic rats; assay type: in vivo, male albino rats; settings: for nerve conduction velocity as a percent of normal, first inflection / nerve conduction velocity as a percent of normal, first peak / nerve conduction velocity as a percent of normal, second inflection / nerve conduction velocity as a percent of normal, second peak: 15 weeks
Protocol: (§3) The purpose is to evaluate the efficacy of the racemic 2-fluoro compound (L), an aldose reductase inhibitor, for inhibiting cataractogenesis and nerve conduction deficit in diabetic rats.
(§4) Diabetes was induced in male albino rats by the intravenous injection of 50 mg/kg streptozotocin. The diabetic state was verified by measuring the blood glucose level in each animal before and after injection. […] A fourth group consisted of non-diabetic and otherwise normal rats which remained untreated. Treatments were given once daily by oral […], and continued through the day prior to sacrifice of the animal.
(§5) Each animal was weighed on a weekly basis. Both lenses of each animal were examined by ophthalmoscope periodically and any cataractous changes were graded and noted. At the end of 15 weeks, each animal was anesthetized using pentobarbital and the nerve conduction velocities of the sciatic nerve were measured. After an animal was sacrificed, the sciatic nerve and other tissues and organs were taken, weighed, and frozen for future biochemical analyses.

[3] = test system: cataractogenesis in diabetic rats; assay: cataractous changes in streptozotocin diabetic rats; assay type: in vivo, male albino rats; settings: 15 weeks
Protocol: as §3, §4, §5
Cataractous changes were graded on a scale of 0 to 4; 0 denoting a normal looking lens with no changes and 4 denoting opacification involving the whole lens.

## O=C1NC(=O)C2(N1)c1ccccc1-c1ccc(F)cc12 (racemic) [Compound L, dl-Spiro(2-fluorofluoren-9,4'-imidazolidine)-2',5'-dione]
Human Aldose Reductase; 10^-4, human, read-out: In vitro Aldose Reductase Inhibition
  inhibition at 100 µM: 100%
Human Aldose Reductase; 10^-5, human, read-out: In vitro Aldose Reductase Inhibition
  inhibition at 10 µM: 88%
Human Aldose Reductase; 10^-6, human, read-out: In vitro Aldose Reductase Inhibition
  inhibition at 1 µM: 81%
Human Aldose Reductase; 10^-7, human, read-out: In vitro Aldose Reductase Inhibition
  inhibition at 0.1 µM: 53%
Human Aldose Reductase; 10^-8, human, read-out: In vitro Aldose Reductase Inhibition
  inhibition at 0.01 µM: 18%
Human Aldose Reductase; human
  pIC50: 7.04
Human Aldose Reductase
  activity against human aldose reductase as compared to rat aldose reductase: as active or more active
  more active against human aldose reductase than the Sarges resolved compound: 7 X
Rat Aldose Reductase
  pIC50: 6.82
Cataracts in rats
  inhibition of cataract development: inhibit cataract development
  condition of rat eyes: asymptomatic
[1]; 4 Mg/Kg/day
  average galactitol levels in lenses: 6.274
[1]; 8 Mg/Kg/day
  average galactitol levels in lenses: 5.074
[2]; 8 mg/kg once daily oral
  nerve conduction velocity as a percent of normal, first inflection: 93.3%
  nerve conduction velocity as a percent of normal, first peak: 88.2%
  nerve conduction velocity as a percent of normal, second inflection: 87.4%
  nerve conduction velocity as a percent of normal, second peak: 85.0%
[2]; 8 mg/kg, by comparison to the untreated diabetic rats
  statistical significance of improvement in nerve conduction: significant
[3]; 8 mg/kg once daily oral
  prevention of lens opacification in diabetic rats: effective in preventing opacification of the lens

## O=C1NC(=O)C2(CCOc3ccc(F)cc32)N1 (racemic) [Sarges Racemic, dl-spiro-(6-fluorochroman-4,4'-imidazolidine)-2',5'-dione, reference compound]
Cataracts in rats; 4 Mg/Kg/day
  Times to Cataract, Mean: 15.68 days
  average time to snowflake-like opacities: 15.7 days
Cataracts in rats
  condition of rat eyes: developed snowflake-like opacities
Cataracts in rats; 4 vs 8 Mg/Kg/day, average
  time to cataract, days less than at 8 Mg/Kg/day: 4 days
Cataracts in rats; 8 Mg/Kg/day
  Times to Cataract, Mean: 19.68 days
  average time to snowflake-like opacities: 19.7 days
[1]; 4 Mg/Kg/day
  average galactitol levels in lenses: 9.238
[1]; 8 Mg/Kg/day
  average galactitol levels in lenses: 9.107
[2]; 16 mg/kg once daily oral
  nerve conduction velocity as a percent of normal, first inflection: 88.6%
  nerve conduction velocity as a percent of normal, first peak: 83.9%
  nerve conduction velocity as a percent of normal, second inflection: 82.4%
  nerve conduction velocity as a percent of normal, second peak: 79.1%
[3]; 16 mg/kg once daily oral, 30 lenses
  prevention of lens opacification in diabetic rats: all appeared normal

## O=C1NC(=O)C2(N1)c1cc(F)ccc1-c1ccc(F)cc12 [M, Spiro-[2,7-difluorofluoren-9,4'-imidazolidine]-2',5'-dione]
Human Aldose Reductase; 10^-5, human
  In vitro Aldose Reductase Inhibition: 81
Human Aldose Reductase; 10^-6, human
  In vitro Aldose Reductase Inhibition: 71
Human Aldose Reductase; 10^-7, human
  In vitro Aldose Reductase Inhibition: 64
Human Aldose Reductase; 10^-8, human
  In vitro Aldose Reductase Inhibition: 35
Human Aldose Reductase; human
  pIC50: 7.28
Human Aldose Reductase
  activity against human aldose reductase as compared to rat aldose reductase: as active or more active
  more active against human aldose reductase than the Sarges resolved compound: 12 X
Rat Aldose Reductase
  pIC50: 7.36
Cataracts in rats
  inhibition of cataract development: inhibit cataract development
  condition of rat eyes: asymptomatic
[1]; 4 Mg/Kg/day
  average galactitol levels in lenses: 2.560
[1]; 4 and 8 Mg/Kg/day
  potency relative to the 2-fluoro compound: more potent
[1]; 8 Mg/Kg/day
  average galactitol levels in lenses: 1.399
